# Patent US20250161271A1, “PHARMACEUTICAL COMPOSITION FOR TREATING CANCER, COMPRISING ANTICANCER AGENT AND NOVEL COMPOUND HAVING INHIBITORY ACTIVITY WITH RESPECT TO PROSTAGLANDIN E2 RECEPTORS” (KANAPH THERAPEUTICS INC., priority 2022, published 2025)
# Columns and labels:
# hEP4 = target: T1, hEP4 (Homo sapiens, UniProt P35408); assay: hEP4 cAMP assay; format: cell-based; conditions: HEK293 cells overexpressing hEP4; PGE2 20 nM as agonist; median of multiple experiments; read-out: IC50 (nM) EP4 cAMP
# T1 construct: expressed in transfected cells; host or cells: HEK293
# Description: Experimental Example 1.2: hEP4 cAMP Assay
# (§1) HEK293 cells overexpressing hEP4 were cultured in growth medium (GM:MEM (Gibco™, 11095080)/10% HI FBS (Gibco™, 10082147)/1% penicillin/streptomycin). Before the experiment, the growth medium was removed, and starvation medium (HBSS (Gibco™ 14025076)/10% GM) was added. Thereafter, the cells were incubated for 4 hours. HEK293 cells harboring hEP4 were detached from the culture dish with a non-enzymatic cell dissociation buffer (Gibco™, 15040066). The cells were resuspended in assay buffer (AB:HBSS, 0.1% BSA stabilizer, 0.5 mM IBMX, 5 mM HEPES).
# (§2) 1,000 cells in 5 μL of AB were seeded per well in a 384 well plate (Corning®, 3570), and stock solutions of test compounds were prepared at a concentration of 1 mM in DMSO and serially diluted in DMSO to the concentration required for the inhibition dose response curve (test concentration range of […]-0.001 nM). […]
# (§3) 5 μL of each donor (Eu-cAMP tracer) and acceptor (ULight-anti-cAMP) was added, and the plate was incubated in the dark for 1 hour at room temperature, and then a Varioskan LUX multimode microplate reader was used to obtain the results (excitation: 334 nm, emission: 615 and 665 nm). The resulting FRET fluorescence value (665 nm/615 nm*10000) was converted and then calculated as a percentage of cAMP compared to the DMSO control value. […]
# hEP2 = target: T2, hEP2 (Homo sapiens, UniProt P43116); assay: hEP2 cAMP assay; format: cell-based; conditions: HEK293 cells overexpressing hEP2; PGE2 400 pM as agonist; median of multiple experiments; read-out: IC50 (nM) EP2 cAMP
# T2 construct: expressed in transfected cells; host or cells: HEK293
# Description: Experimental Example 1.1: hEP2 cAMP Assay
# as §1, with “hEP2” for “hEP4”, “hours. The” for “hours.”
# as §2
# as §3, with “relative” for “compared”
# CT26 cells = assay: Anticancer efficacy in mouse-derived colorectal carcinoma CT26 tumor model (tumor size); format: in vivo
# Description: Experimental Example 2.1. Evaluation of Anticancer Efficacy of Combination Administration in Mouse-Derived Colorectal Carcinoma Tumor Model: CT26
# (§4) CT26 cells were subcultured and maintained in a cell incubator (CO2 incubator) under 37° C., 500 CO2 conditions using RPMI-1640 medium containing 10% FBS (fetal bovine serum). For the tumor animal model, CT26 cells were resuspended at a concentration of 533 10^5 cells/100 μL, and 100 μL per each mouse was transplanted into the subcutaneous region of the right flank of 6 to 7 week-old BALB/c mice (Shanghai Lingchang Biotechnology Co., Ltd, Shanghai) to prepare a CT26 tumor model.
# The tumor size was calculated by measuring the short axis and the long axis using a vernier caliper and substituting them into Equation 1 below.
# tumor size (volume, mm^3)=(short axis, mm)^2×(long axis, mm)×0.5 [Equation 1]
# (§5) When the tumor size reached an average of 70 to 100 mm^3, the mice were randomly divided into groups for the evaluation of drug efficacy (average tumor size per group=79 mm^3). The drug efficacy was evaluated by substituting the measured tumor size into Equation 2 to calculate and compare the tumor growth inhibitory ability between groups.
# tumor growth inhibitory ability=[{(control group tumor size at the time of measurement,C)−(control group tumor size at the start of administration,C0)}−{(test group tumor size at the time of measurement,T)−(test group tumor size at the start of administration,T0)}]/{(control group tumor size at the time of measurement,C)−(control group tumor size at the start of administration,C0)} [Equation 2]
# Drug administration was carried out for 12 days from the day after the test groups were grouped into a group treated with A01 (Example 34b), a group treated with an anti-PD-1 antibody, an immune checkpoint inhibitor, and a group treated with A01 and an anti-PD-1 antibody in combination. The anti-PD-1 antibody (BioXcell, Cat #BP0146) was diluted in PBS and intraperitoneally administered once every 3 days at a concentration of 200 μg/mouse. […]
# [1] = Body weight of mice in CT26 tumor model; format: in vivo, mouse; conditions: BALB/c mice
# Description: as §4
# (§6) Drug administration was carried out for 12 days from the day after the test groups were grouped into a group treated with A01 (Example 34b), a group treated with an anti-PD-1 antibody, an immune checkpoint inhibitor, and a group treated with A01 and an anti-PD-1 antibody in combination. The anti-PD-1 antibody (BioXcell, Cat #BP0146) was diluted in PBS and intraperitoneally administered once every 3 days at a concentration of 200 μg/mouse. A01 was used as an excipient by adding Tween 80 to 0.5% methycellulose (40000 cp) aqueous solution until it reached 0.2%, and A01 was suspended as an excipient and orally administered daily at a concentration of 150 mg/kg.
# [2] = Body weight of mice in MC38 tumor model; format: in vivo, mouse; conditions: C57B/6 mice
# Description: as §4, with “MC38” for “CT26”, “subcultured” for “subcultured and maintained”, “5%” for “500”, “DMEM” for “RPMI-1640”, “1×10^6” for “533 10^5”, “C57B/6” for “BALB/c”
# as §6, with “18” for “12”, “A02” for “A01”, “1b),” for “34b),”
# MC38 cells = assay: Anticancer efficacy in mouse-derived colorectal carcinoma MC38 tumor model (tumor size); format: in vivo
# Description: Experimental Example 2.2. Evaluation of Anticancer Efficacy of Combination Administration in Mouse-Derived Colorectal Carcinoma Tumor Model: MC38
# as §4, with “MC38” for “CT26”, “subcultured” for “subcultured and maintained”, “5%” for “500”, “DMEM” for “RPMI-1640”, “1×10^6” for “533 10^5”, “C57B/6” for “BALB/c”
# The tumor size was calculated by measuring in the same manner as in Experimental Example 2.1.
# as §5, with “size=91” for “size per group=79”, “2 of Experimental Example 2.1” for “2”
# as §6, with “18” for “12”, “A02” for “A01”, “1b),” for “34b),”
# T1 sequence (P35408 whole entry): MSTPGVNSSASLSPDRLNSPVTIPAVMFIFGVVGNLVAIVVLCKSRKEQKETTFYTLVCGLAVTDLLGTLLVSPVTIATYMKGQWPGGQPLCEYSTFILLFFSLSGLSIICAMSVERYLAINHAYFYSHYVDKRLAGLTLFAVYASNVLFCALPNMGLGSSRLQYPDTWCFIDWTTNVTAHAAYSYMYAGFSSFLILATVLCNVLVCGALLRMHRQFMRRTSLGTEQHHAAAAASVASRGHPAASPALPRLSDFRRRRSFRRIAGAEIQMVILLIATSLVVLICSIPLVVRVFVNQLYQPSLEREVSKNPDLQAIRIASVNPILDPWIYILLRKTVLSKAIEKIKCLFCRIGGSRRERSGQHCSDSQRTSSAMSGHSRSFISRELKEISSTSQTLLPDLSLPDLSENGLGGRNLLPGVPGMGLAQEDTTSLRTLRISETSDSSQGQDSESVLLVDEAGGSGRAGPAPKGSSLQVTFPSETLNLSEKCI
# T2 sequence (P43116 whole entry): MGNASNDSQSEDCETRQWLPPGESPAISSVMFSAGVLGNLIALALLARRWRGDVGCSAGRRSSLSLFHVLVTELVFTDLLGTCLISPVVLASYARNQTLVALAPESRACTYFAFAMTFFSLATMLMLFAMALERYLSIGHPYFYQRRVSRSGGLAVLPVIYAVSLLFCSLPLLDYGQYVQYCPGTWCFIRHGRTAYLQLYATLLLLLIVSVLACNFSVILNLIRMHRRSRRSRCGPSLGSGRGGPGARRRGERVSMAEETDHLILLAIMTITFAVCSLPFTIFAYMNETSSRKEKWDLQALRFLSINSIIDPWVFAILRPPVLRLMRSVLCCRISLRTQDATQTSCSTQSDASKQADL
structure (smiles),measurement,setting,value
"COc1cc(-c2ccc(Cc3c(C)sc(C)c3C(=O)NC3CC4(C3)CC(C(=O)O)C4)cc2)cc(N2CCC2=O)c1 [Example 63, (2R, 4R, 6R)-6-(4-((3′-methoxy-5′-(2-oxoazetidin-1-yl)-[1,1′-biphenyl]-4-yl)methyl)-2,5-dimethylthiophene-3-carboxamido)spiro[3.3]heptane-2-carboxylic acid]",IC50,hEP4,≤ 500 nM
"O=C(N[C@]12C[C@](C(=O)O)(C1)C2)c1csc2ccn(Cc3ccc(-c4ccccc4)cc3)c12 [Example 87, 3-(4-([1,1′-biphenyl]-4-ylmethyl)-4H-thieno[3,2-b]pyrrole-3-carboxamido)bicyclo[1.1.1]pentane-1-carboxylic acid]",IC50,hEP2,> 10000 nM
same,IC50,hEP4,> 10000 nM
COc1cc(F)cc(-c2ccc(Cc3c(C)sc(C)c3C(=O)NC3CC4(C3)CC(C(=O)O)C4)cc2)c1 (stereo not shown) [Example A01],tumor growth inhibition rate compared to control group,"CT26 cells; 12 days administration, A01 150 mg/kg oral daily, anti-PD-1 antibody 200 μg/mouse i.p. once every 3 days, Equation 2",38.5%
same,tumor size at end point of the test,"CT26 cells; BALB/c mice, 12 days administration, A01 150 mg/kg oral daily, anti-PD-1 antibody 200 μg/mouse i.p. once every 3 days",1092.6±237.5 mm^3
same,tumor size at start point of the test,"CT26 cells; BALB/c mice, start of drug administration",79.4±2.3 mm^3
same,body weight at end point of the test,"[1]; 12 days administration, A01 150 mg/kg oral daily, anti-PD-1 antibody 200 μg/mouse i.p. once every 3 days",22.2 ± 0.6 g
same,body weight at start point of the test,[1]; start of drug administration,20.4 ± 0.4 g
Cc1sc(C)c(C(=O)NC2CC3(C2)CC(C(=O)O)C3)c1Cc1ccc(-c2ccccc2)cc1 (stereo not shown) [Example A02],body weight at end point of the test,"[2]; 18 days administration, A02 150 mg/kg oral daily, anti-PD-1 antibody 200 μg/mouse i.p. once every 3 days",22.0 ± 0.4 g
same,body weight at start point of the test,[2]; start of drug administration,19.1 ± 0.2 g
same,tumor growth inhibition rate compared to control group,"MC38 cells; 18 days administration, A02 150 mg/kg oral daily, anti-PD-1 antibody 200 μg/mouse i.p. once every 3 days, Equation 2",32.7%
same,tumor size at end point of the test,"MC38 cells; C57B/6 mice, 18 days administration, A02 150 mg/kg oral daily, anti-PD-1 antibody 200 μg/mouse i.p. once every 3 days",1711.0±236.4 mm^3
same,tumor size at start point of the test,"MC38 cells; C57B/6 mice, start of drug administration",91.5±3.1 mm^3
